Structures can show the parent of a compound that is named as a salt.

This assay concerns the target T1, DMT1 (Homo sapiens, UniProt P49281).
T1 sequence (P49281 1-568): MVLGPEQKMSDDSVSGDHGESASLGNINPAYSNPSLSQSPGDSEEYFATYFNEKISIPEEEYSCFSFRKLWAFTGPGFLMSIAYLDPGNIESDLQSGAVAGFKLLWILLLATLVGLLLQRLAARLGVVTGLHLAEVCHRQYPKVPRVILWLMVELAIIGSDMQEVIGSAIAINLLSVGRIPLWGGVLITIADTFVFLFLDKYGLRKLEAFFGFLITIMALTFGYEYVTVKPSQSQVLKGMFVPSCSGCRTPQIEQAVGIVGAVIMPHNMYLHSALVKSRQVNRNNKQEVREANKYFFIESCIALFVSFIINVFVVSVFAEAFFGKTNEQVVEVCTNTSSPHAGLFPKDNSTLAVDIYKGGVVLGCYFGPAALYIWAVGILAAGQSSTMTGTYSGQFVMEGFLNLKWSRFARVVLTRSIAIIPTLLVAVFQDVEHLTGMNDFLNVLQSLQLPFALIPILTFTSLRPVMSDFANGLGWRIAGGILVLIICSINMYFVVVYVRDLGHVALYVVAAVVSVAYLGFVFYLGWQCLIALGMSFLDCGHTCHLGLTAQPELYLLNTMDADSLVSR
The assay can be described thus: DMT1 Activity Assay (In Vitro Assay). It counts as cell-based. Particulars: read-out: IC50 Activity Level. An excerpt: In particular, identification of the compounds of the invention ability to modulate, preferably to inhibit, DMT1 activity, can be assessed using a variety of in vitro and in vivo assays, for measuring uptake of reduced iron (Fe^2+). One such protocol involves the screening of chemical agents for ability to modulate the activity of DMT1 thereby identifying it as a modulating agent. The in vitro activity of DMT1 can be measured in cell based assays by either directly measuring iron flux (using a radioactively labelled iron ^55Fe) or by measuring the fluorescence of a cell permeable iron fluorophore such as calcein. Stable cell lines overexpressing DMT1 are exposed to ^55Fe or loaded with calcein and then compound is applied. […] Alternatively, in another format electrophysiological techniques can be used to measure the current or iron or other metals traversing the cell membrane with DMT1 in a Xenopus oocyte or other cell based system (Gunshin et al., Nature, 1997, 31; 388(6641):482-8).
This example discloses various in vitro assay for testing and profiling test agents against DMT1 stably expressed in cells of either an endogenous or recombinant origin. These assays can use stable cell lines overexpressing DMT1 or intestinal cells and intestinal tissue expressing endogenous DMT1. DMT1 function could also be assessed in other cell types that express DMT1. Of greatest relevance would be the erythrocytes (e.g. K562 cells) or hepatocytes (e.g. […]).
DMT1 function can be assessed in a number of ways, including monitoring fluorescence changes of an iron fluorophore (e.g. calcein), monitoring uptake of radiolabelled iron (55Fe or ^59Fe) (Picard et al., J. Biol. Chem., 2000, 275(46):35738-45 and Wetli et al., Chem. Biol. 2006 September; 13(9):965-72), or by assessing the current or transport of iron and other metals into the cells or tissues using standard electrophysiological techniques (Gunshin et al., Nature, 1997, 388(6641):482-8.).
Variations of these assays involve alterations of incubation times, the iron status of the cells and tissues (which may be modulated by chemical chelators or by harvesting from iron deficient animals), the metal cation detected and the pH of the reaction can generally be made by conventional techniques known to those skilled in the art.
On to `N=C(N)SCc1ccccc1-c1ccccc1CSC(=N)N` [Example 9, 2-(2′-carbamimidoylsulfanylmethyl-biphenyl-2-ylmethyl)-isothiourea], for which the IC50 (as a rule, the concentration needed to halve the response being measured) was no less than 1000 nM.

As to `N=C(N)SCCc1ccccc1Sc1ccccc1CCSC(=N)N` [Example 1.31, dihydrobromide], the IC50 was no less than 1000 nM. The value for `N=C(N)NCCc1ccccc1Sc1ccccc1CCNC(=N)N` [Example 5, (4-methylbenzenesulfonate)] was no less than 1000 nM; that for `COc1ccc(Sc2ccccc2CSC(=N)N)c(CSC(=N)N)c1` [Example 1.4, 2-[2-(2-carbamimidoylsulfanylmethyl-4-methoxyphenylsulfanyl)-benzyl]isothiourea dihydrobromide] was no less than 1000 nM.

In the case of `Cc1ccc(Sc2ccccc2CSC(=N)N)c(CSC(=N)N)c1` [Example 1.10, 2-[2-(2-carbamimidoylsulfanylmethyl-4-methylphenylsulfanyl)-benzyl]isothiourea dihydrobromide], the IC50 was 100 to 1000 nM. With `N=C(N)CCc1ccccc1Sc1ccccc1CCC(=N)N` [Example 6, 2-(6-(2-amidinoethyl)phenyl)thio-1-(2-amidinoethyl)benzene], the IC50 was no less than 1000 nM. The value for `CS(=O)(=O)c1ccc(CSC(=N)N)c(Sc2ccc(F)cc2CSC(=N)N)c1` [Example 2.7, 2-{[2-({[amino(imino)methyl]thio}methyl)-4-fluorophenyl]thio}-4-(methylsulfonyl)benzyl imidothiocarbamate dihydrochloride] was no less than 1000 nM; that for `N=C(N)SCc1cccc(CSC(=N)N)c1-c1c(CSC(=N)N)cccc1CSC(=N)N` [Example 2.23, biphenyl-2,2′-6,6′-tetrayltetrakis(methylene)tetracarbamimidothioate tetrahydrobromide] was no less than 1000 nM. For `N=C(N)SCc1ccccc1Sc1ccc(C(F)(F)F)cc1CSC(=N)N` [Example 1.27, 2-[2-(2-carbamimidoylsulfanylmethylphenylsulfanyl)-5-(trifluoromethyl)benzyl]isothiourea dihydrobromide], the IC50 was no less than 1000 nM. Then `NC(=S)Nc1ccccc1Sc1ccccc1NC(N)=S` [Example 8, 1,1′-(2,2′-thiobis(2,1-phenylene))dithiourea], with no less than 1000 nM; and `N=C(N)SCc1cc(F)ccc1Oc1ccc(F)cc1CSC(=N)N` [Example 2.13, 2-[2-(2-carbamimidoylsulfanylmethyl-4-fluorophenoxy)-5-fluorobenzyl]isothiourea dihydrobromide], with 100 to 1000 nM; and `N=C(N)SCc1cc(F)ccc1S(=O)(=O)c1ccc(F)cc1CSC(=N)N` [Example 2.4, 2-[2-(2-carbamimidoylsulfanylmethyl-4-fluorophenylsulfonyl)-5-fluorobenzyl]isothiourea dihydrobromide], with no less than 1000 nM. The value for `N=C(N)SCc1cc(F)ccc1Sc1cscc1CSC(=N)N` [Example 2.5, (4-{[2-({[amino(imino)methyl]thio}methyl)-4-fluorophenyl]thio}-3-thienyl)methyl imidothiocarbamate dihydrochloride] was 100 to 1000 nM; that for `N=C(N)SCc1ccccc1C(=O)c1cc(F)ccc1CSC(=N)N` [Example 2.27, 2-(6-(amidinothiomethyl)phenyl)carbonyl-1-(amidinothiomethyl)-4-fluorobenzene dihydrobromide] was no less than 1000 nM. As for `N=C(N)SCc1ccccc1Oc1cccc(Cl)c1CSC(=N)N` [Example 2.17, 2-[2-({[amino(imino)methyl]thio}methyl)-3-chlorophenoxy]benzyl imidothiocarbamate dihydrobromide], the IC50 was no less than 1000 nM. Then `N=C(N)SCc1cc(F)ccc1Sc1cc(Cl)ccc1CSC(=N)N` [Example 1.7, 2-[2-(2-carbamimidoylsulfanylmethyl-5-chloro-phenylsulfanyl)-5-fluoro-benzyl]-isothiourea dihydrobromide], with 100 to 1000 nM. The value for `N=C(N)SCc1cc(F)ccc1Oc1ccc(Cl)cc1CSC(=N)N` [Example 2.11, 2-[2-(2-carbamimidoylsulfanylmethyl-4-chlorophenoxy)-5-fluorobenzyl]isothiourea dihydrobromide] was 100 to 1000 nM; that for `N=C(N)SCc1ccccc1Sc1ccc2ccccc2c1CSC(=N)N` [Example 1.13, 2-[2-(1-carbamimidoylsulfanylmethylnaphthalen-2-ylsulfanyl)benzyl]-isothiourea dihydrobromide] was no less than 1000 nM; that for `N#CN=C(N)Cc1ccccc1Sc1ccccc1CC(N)=NC#N` [Example 7.1, 2-(6-((cyanoamidino)methyl)phenyl)thio-1-((cyanoamidino)methyl)benzene] was no less than 1000 nM. Take `N=C(NN)SCc1ccccc1Sc1ccccc1CSC(=N)NN` [Example 3, 2-(6-((aminoamidino)thiomethyl)phenyl)thio-1-((aminoamidino)thiomethyl)benzene dihydrobromide]: the IC50 was no less than 1000 nM. Then `COc1ccc(Sc2ccc(F)cc2CSC(=N)N)c(CSC(=N)N)c1` [Example 1.6, 2-[2-(2-carbamimidoylsulfanylmethyl-4-methoxyphenylsulfanyl)-5-fluorobenzyl]isothiourea dihydrobromide], with 100 to 1000 nM; and `N=C(N)SCc1ccccc1Sc1ccccc1CSC(=N)N` [Example 1.1, 2-[2-(2-carbamimidoylsulfanylmethylphenylsulfanyl)benzyl]isothiourea dihydrobromide], with 100 to 1000 nM; and `COC(=O)c1cccc(CSC(=N)N)c1-c1c(CSC(=N)N)cccc1C(=O)OC` [Example 2.24, dimethyl 6,6′-bis(carbamimidoylthiomethyl)biphenyl-2,2′-dicarboxylate dihydrobromide], with no less than 1000 nM.

Consider `Cc1ccc(CSC(=N)N)c(Sc2ccc(F)cc2CSC(=N)N)c1` [Example 1.5, 2-[2-(2-carbamimidoylsulfanylmethyl-5-methylphenylsulfanyl)-5-fluorobenzyl]isothiourea dihydrobromide], for which the half-maximal inhibitory concentration (IC50) was no less than 1000 nM. Take `N=C(N)SCc1cc(F)ccc1Oc1cccc(Cl)c1CSC(=N)N` [Example 2.10, 2-[2-(2-carbamimidoylsulfanylmethyl-3-chlorophenoxy)-5-fluorobenzyl]isothiourea dihydrobromide]: the IC50 is no less than 1000 nM. Then `N=C(N)SCc1ccccc1Oc1ccccc1CSC(=N)N` [Example 2.15, 2-[2-(2-carbamimidoylsulfanylmethylphenoxy)benzyl]isothiourea dihydrobromide], with no less than 1000 nM; and `N=C(N)SCCc1cc(F)ccc1Sc1ccc(F)cc1CSC(=N)N` [Example 1.23, 2-[2-(2-carbamimidoylsulfanylethyl-4-fluorophenylsulfanyl)-5-fluorobenzyl]isothiourea dihydrobromide], with 100 to 1000 nM; and `N=C(N)SCc1ccccc1C(=O)c1ccc(F)cc1CSC(=N)N` [Example 2.26, 2-(6-(amidinothiomethyl)phenyl)carbonyl-1-(amidinothiomethyl)-5-fluorobenzene dihydrobromide], with 100 to 1000 nM. The value for `CC(SC(=N)N)c1ccccc1Oc1ccccc1C(C)SC(=N)N` (centres unmarked) [Example 1, 2-(1-{2-[2-(1-carbamimidoylsulfanylethyl)phenoxy]phenyl}ethyl)-isothiourea dihydrobromide] was no less than 1000 nM.

Source of the values: US20080234384A1, “BIARYL AND BIHETEROARYL COMPOUNDS USEFUL IN TREATING IRON DISORDERS” (XENON PHARMACEUTICALS INC., priority 2007, published 2008).
